Laboratory results taken from publication PMC11298430, “Synthesis and In vitro evaluation of bichalcones as novel anti-toxoplasma agents” (Frontiers in Chemistry, 2024).
Read-outs that look alike come from different tables or passages of the source.

What was measured:
[1] = test system: Toxoplasma gondii ME49 tachyzoites; assay: Toxoplasma gondii in vitro inhibition assay (3H-uracil incorporation); format: cell-based
MTT cytotoxicity assay = format: cell-based; conditions: human
Protocol: (§1) The MTT [3-(4, 5-dimethylthiazole-2-yl)-2, 5-diphenyltetrazolium bromide] reduction assay ([Mosmann, 1983]) was used to quantify the cytotoxic effects of the examined chalcones and bichalcones on the host cells. To avoid edge effects, only the inner 60 wells of each plate were used. Briefly, 5 × 10^4 Hs27 cells per well were cultured in 96-well microtiter plates in Iscove’s modified Dulbecco’s medium (IMDM, Gibco–Thermo Fisher Scientific, Braunschweig, Germany, #12440053) with a volume of 100 µL per well and incubated overnight at 37°C until confluence. Different concentrations of the compounds (ranging from 200 μM to 0.09 µM) were then added to the Hs27 cells. Controls included untreated Hs27 cells treated with DMSO, and cells treated with staurosporine (0.031, 0.062, 0.125, 0.25, 0.5, 1 µM) (Merck, Darmstadt, Germany, #S4400), a natural product known for its potent activity as apoptosis inducer ([Belmokhtar et al., 2001]). After 24 h of incubation, the culture media were replaced with 100 µL of Dulbecco’s Modified Eagle Medium (DMEM) medium without red phenol (Gibco-Thermo Fisher Scientific, Braunschweig, Germany, #21041025) plus 10% heat-inactivated fetal bovine serum (FBS Standard, South America origin, fetal bovine serum, […] sterile filtered, PAN-Biotech, Aidenbach, Germany, #P30-3,306), and […] 2-mercaptoethanol (Gibco-Thermo Fisher Scientific, Braunschweig, Germany, #21985023). The experiment was performed following the manufacturer’s instructions (CyQuant MTT Cell Viability Assay Kit, Thermo Fisher Scientific, Braunschweig, Germany, #V-13154). Optical density (O.D.) was measured at 570 nm using a microplate reader (TECAN Sunrise, Männedorf, Switzerland). The half-maximal cytotoxic concentration (CC50) values of each compound against Hs27 cells relative to DMSO-treated samples were determined using GraphPad PRISM™ statistical software (version 9.5.1; San Diego, CA). In addition, the selectivity index (SI) of each compound was calculated from the ratio of CC50/IC50.

[2] = Stability experiments (reverse phase HPLC purity); format: physicochemical
Protocol: Table S3: Purity results of the stability experiments over a varying time span at different
Entry Variations Time Purity [%]
Table S4: Reverse Phase HPLC chromatogram of bichalcone 2ab (rac) in DMSO stock solution […]
Table S5: Reverse Phase HPLC chromatogram of bichalcone 2ab (rac) in DMSO stock solution
Table S6: Reverse Phase HPLC chromatogram of bichalcone 2ab (rac) in DMSO at -78 °C for […]

human fibroblasts Hs27 = assay: MTT cytotoxicity assay; format: cell-based; conditions: 24 h
Protocol: as §1

Toxoplasma gondii = test system: Toxoplasma gondii; set-up: method as in Touquet et al., 2018; conditions: literature value ref Touquet et al., 2018; cited from earlier work
[3] = Toxoplasma gondii, HS27, T. gondii ME49 tachyzoites in Hs27 host cells, 3H-uracil incorporation, n = 6, read-out: IC50 ± S.D.
[4] = T. gondii ME49 tachyzoites in Hs27 host cells, 3H-uracil incorporation, n = 6, read-out: IC50 ± S.D.
[5] = Toxoplasma gondii, HS27, read-out: IC50 ± S.D.
[6] = Hs27 cells, MTT, 24 h, n = 6, read-out: CC50

Row | SMILES | IC50 [1, 3] | CC50 at 24 h (MTT cytotoxicity assay) | other results
1 | COc1cc(C)c(-c2c(C)cc(OC)c(C(=O)/C=C/c3ccccc3)c2O)c(O)c1C(=O)/C=C/c1ccccc1 (racemic) [2ab] | 0.11 ± 0.02 µM | > 200 µM | Purity ([2]; 22 °C, DMSO, 24 h): 75.9%; Purity ([2]; 40 °C, DMSO, 24 h): 76.6%; Purity ([2]; 40 °C, MeOH, 24 h): 89.7%; Purity ([2]; 40 °C, MeOH, KOH, 24 h): 35.6%; Purity ([2]; -20 °C, DMSO, 6 months): 96.2%
2 | COc1cc(C)c(-c2c(C)cc(OC)c(C(=O)/C=C/c3ccccc3)c2O)c(O)c1C(=O)/C=C/c1ccccc1 (single isomer, unassigned) [(R a)-2ab] | – | – | IC50 [1, 4]: 0.1 ± 0.01 µM; CC50 (human fibroblasts Hs27): > 200 µM
3 | COc1cc(C)c(-c2c(C)cc(OC)c(C(=O)/C=C/c3ccccc3)c2O)c(O)c1C(=O)/C=C/c1ccccc1 (single isomer, unassigned) [(S a)-2ab] | – | > 200 µM | IC50 [1, 4]: 0.31 ± 0.03 µM
4 | COc1ccc(/C=C/C(=O)c2c(O)cc(C)cc2OC)cc1 [1aa] | 21.8 ± 3.07 µM | 180 ± 32 µM | –
5 | COc1cc(C)cc(O)c1C(=O)/C=C/c1ccccc1 [1ab] | 14.1 ± 2.62 µM | 133 ± 28 µM | –
6 | COc1cc(C)cc(O)c1C(=O)/C=C/c1ccc(N(C)C)cc1 [1ac] | > 50 µM | > 200 µM | –
7 | COc1cc(C)cc(O)c1C(=O)/C=C/c1ccc(C(F)(F)F)cc1 [1ad] | > 50 µM | > 200 µM | –
8 | COc1cc(C)cc(O)c1C(=O)/C=C/c1ccc(Br)cc1 [1ae] | 10.6 ± 1.05 µM | 190 ± 99 µM | –
9 | COc1cc(C)cc(O)c1C(=O)/C=C/c1cccc(Br)c1 [1af] | 6.18 ± 0.55 µM | 134 ± 78 µM | –
10 | COc1cc(C)cc(O)c1C(=O)/C=C/c1ccccc1Br [1ag] | > 50 µM | > 200 µM | –
11 | COc1ccc(/C=C/C(=O)c2c(O)cc(OC)cc2OC)cc1 [1ba] | 8.08 ± 2.06 µM | > 200 µM | –
12 | COc1cc(O)c(C(=O)/C=C/c2ccccc2)c(OC)c1 [1bb] | 6.01 ± 2.54 µM | 87.8 ± 16 µM | –
13 | COc1cc(O)c(C(=O)/C=C/c2ccc(N(C)C)cc2)c(OC)c1 [1bc] | – | – | IC50 [1, 5]: > 50 µM; CC50 at 24 h (MTT cytotoxicity assay; [6]): > 200 µM
14 | COc1cc(O)c(C(=O)/C=C/c2ccc(C(F)(F)F)cc2)c(OC)c1 [1bd] | > 50 µM | > 200 µM | –
15 | COc1cc(O)c(C(=O)/C=C/c2ccc(Br)cc2)c(OC)c1 [1be] | – | – | IC50 [1, 5]: > 50 µM; CC50 at 24 h (MTT cytotoxicity assay; [6]): > 200 µM
16 | COc1cc(O)c(C(=O)/C=C/c2cccc(Br)c2)c(OC)c1 [1bf] | 11.3 ± 0.61 µM | > 200 µM | –

Row | SMILES | IC50 [1, 3] | CC50 at 24 h (MTT cytotoxicity assay) | other results
17 | COc1cc(O)c(C(=O)/C=C/c2ccccc2Br)c(OC)c1 [1bg] | – | – | IC50 [1, 5]: 4.46 ± 0.46 µM; CC50 at 24 h (MTT cytotoxicity assay; [6]): 86.5 ± 72 µM
18 | COc1ccc(/C=C/C(=O)c2c(OC)cc(C)c(-c3c(C)cc(OC)c(C(=O)/C=C/c4ccc(OC)cc4)c3O)c2O)cc1 [2aa] | 6.63 ± 0.77 µM | > 200 µM | –
19 | COc1cc(C)c(-c2c(C)cc(OC)c(C(=O)/C=C/c3ccc(N(C)C)cc3)c2O)c(O)c1C(=O)/C=C/c1ccc(N(C)C)cc1 [2ac] | > 50 µM | > 200 µM | –
20 | COc1cc(C)c(-c2c(C)cc(OC)c(C(=O)/C=C/c3ccc(C(F)(F)F)cc3)c2O)c(O)c1C(=O)/C=C/c1ccc(C(F)(F)F)cc1 [2ad] | 24.7 ± 3.52 µM | > 200 µM | –
21 | COc1cc(C)c(-c2c(C)cc(OC)c(C(=O)/C=C/c3ccc(Br)cc3)c2O)c(O)c1C(=O)/C=C/c1ccc(Br)cc1 [2ae] | 7.91 ± 1.14 µM | > 200 µM | –
22 | COc1cc(C)c(-c2c(C)cc(OC)c(C(=O)/C=C/c3cccc(Br)c3)c2O)c(O)c1C(=O)/C=C/c1cccc(Br)c1 [2af] | 30.5 ± 7.21 µM | > 200 µM | –
23 | COc1cc(C)c(-c2c(C)cc(OC)c(C(=O)/C=C/c3ccccc3Br)c2O)c(O)c1C(=O)/C=C/c1ccccc1Br [2ag] | 18.44 ± 0.1 µM | > 200 µM | –
24 | COc1ccc(/C=C/C(=O)c2c(OC)cc(OC)c(-c3c(OC)cc(OC)c(C(=O)/C=C/c4ccc(OC)cc4)c3O)c2O)cc1 [2ba] | > 50 µM | > 200 µM | –
25 | COc1cc(OC)c(-c2c(OC)cc(OC)c(C(=O)/C=C/c3ccccc3)c2O)c(O)c1C(=O)/C=C/c1ccccc1 [2bb] | 9.75 ± 1.95 µM | > 200 µM | –
26 | COc1cc(OC)c(-c2c(OC)cc(OC)c(C(=O)/C=C/c3ccc(N(C)C)cc3)c2O)c(O)c1C(=O)/C=C/c1ccc(N(C)C)cc1 [2bc] | > 50 µM | > 200 µM | –
27 | COc1cc(OC)c(-c2c(OC)cc(OC)c(C(=O)/C=C/c3ccc(C(F)(F)F)cc3)c2O)c(O)c1C(=O)/C=C/c1ccc(C(F)(F)F)cc1 [2bd] | 3.09 ± 0.15 µM | > 200 µM | –
28 | COc1cc(OC)c(-c2c(OC)cc(OC)c(C(=O)/C=C/c3ccc(Br)cc3)c2O)c(O)c1C(=O)/C=C/c1ccc(Br)cc1 [2be] | 8.55 ± 1.28 µM | > 200 µM | –
29 | COc1cc(OC)c(-c2c(OC)cc(OC)c(C(=O)/C=C/c3cccc(Br)c3)c2O)c(O)c1C(=O)/C=C/c1cccc(Br)c1 [2bf] | 12.4 ± 2.09 µM | > 200 µM | –
30 | COc1cc(OC)c(-c2c(OC)cc(OC)c(C(=O)/C=C/c3ccccc3Br)c2O)c(O)c1C(=O)/C=C/c1ccccc1Br [2bg] | > 50 µM | > 200 µM | –
31 | CCc1nc(N)nc(N)c1-c1ccc(Cl)cc1 [PYR, pyrimethamine, reference compound] | 0.22 ± 0.05 µM | > 100 µM | IC50 (Toxoplasma gondii): 0.4 µM
